Reference: PubChem BioAssay AID328 (DTP/NCI, 2004)
Inconclusive results and toxic doses are left out. How the source made its calls: active means survival T/C of 150% or more; inactive means T/C below 125% in these data. Residues, ends and D or L forms follow the SMILES beside them.

Tested on: BDF1 mice, P388 leukemia ip, median survival T/C
Assay: NCI In Vivo Anticancer Drug Screen. Data for tumor model P388 Leukemia (intraperitoneal) in B6D2F1 (BDF1) mice
Conditions: endpoint: median survival time, higher = longer survival
Summary of the method: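 Reported as T/C, where T is the survival measurement in dosed animals and C the same measurement in vehicle controls.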

[1] = dose: 50.0 mg/kg/injection, schedule: Q01DX009 (ip), vehicle: saline with Tween-80
[2] = dose: 100.0 mg/kg/injection, schedule: Q01DX009 (ip), vehicle: saline with Tween-80
[3] = dose: 100.0 mg/kg/injection, schedule: Q04DX003 (ip), vehicle: saline with Tween-80
[4] = dose: 200.0 mg/kg/injection, schedule: Q01DX009 (ip), vehicle: saline with Tween-80
[5] = dose: 200.0 mg/kg/injection, schedule: Q04DX003 (ip), vehicle: saline with Tween-80
[6] = dose: 400.0 mg/kg/injection, schedule: Q01DX009 (ip), vehicle: saline with Tween-80
[7] = dose: 400.0 mg/kg/injection, schedule: Q04DX003 (ip), vehicle: saline with Tween-80
[8] = dose: 1.56 mg/kg/injection, schedule: Q01DX009 (ip), vehicle: saline with Tween-80
[9] = dose: 25.0 mg/kg/injection, schedule: Q01DX009 (ip), vehicle: saline with Tween-80
[10] = dose: 100.0 mg/kg/injection, schedule: Q04DX003 (ip), vehicle: saline sonified
[11] = dose: 200.0 mg/kg/injection, schedule: Q04DX003 (ip), vehicle: saline sonified
[12] = dose: 6.25 mg/kg/injection, schedule: Q01DX009 (ip), vehicle: saline with Tween-80
[13] = dose: 12.5 mg/kg/injection, schedule: Q01DX009 (ip), vehicle: saline with Tween-80
[14] = dose: 100.0 mg/kg/injection, schedule: Q01DX009 (ip), vehicle: saline
[15] = dose: 100.0 mg/kg/injection, schedule: Q04DX003 (ip), vehicle: saline
[16] = dose: 200.0 mg/kg/injection, schedule: Q01DX009 (ip), vehicle: saline
[17] = dose: 200.0 mg/kg/injection, schedule: Q04DX003 (ip), vehicle: saline
[18] = dose: 400.0 mg/kg/injection, schedule: Q04DX003 (ip), vehicle: saline

Measured: T/C

CC(N)C(=O)NC(C)C(=O)NC(C)C(=O)NC(C)C(=O)O (stereo not given) (H-AAAA-OH; configuration not given here)
inactive: dose: 50.0 mg/kg/injection, schedule: Q01DX005 (ip), vehicle: saline 93 % of control | dose: 100.0 mg/kg/injection, schedule: Q01DX005 (ip), vehicle: saline 98 % of control | dose: 200.0 mg/kg/injection, schedule: Q01DX005 (ip), vehicle: saline 105 % of control

O=C(CCCN1CCC(O)(c2cccc(C(F)(F)F)c2)CC1)c1ccc(F)cc1
inactive: dose: 12.5 mg/kg/injection, schedule: Q01DX009 (ip), vehicle: Klucel (hydroxypropylcellulose) (HPC) 120 % of control | dose: 12.5 mg/kg/injection, schedule: Q04DX003 (ip), vehicle: Klucel (hydroxypropylcellulose) (HPC) 112 % of control | dose: 18.75 mg/kg/injection, schedule: Q04DX003 (ip), vehicle: Klucel (hydroxypropylcellulose) (HPC) 96 % of control | dose: 25.0 mg/kg/injection, schedule: Q01DX009 (ip), vehicle: Klucel (hydroxypropylcellulose) (HPC) 114 % of control | dose: 25.0 mg/kg/injection, schedule: Q04DX003 (ip), vehicle: Klucel (hydroxypropylcellulose) (HPC) 122 % of control | dose: 50.0 mg/kg/injection, schedule: Q01DX009 (ip), vehicle: Klucel (hydroxypropylcellulose) (HPC) 117 % of control | dose: 50.0 mg/kg/injection, schedule: Q04DX003 (ip), vehicle: Klucel (hydroxypropylcellulose) (HPC) 121 % of control | dose: 150.0 mg/kg/injection, schedule: Q04DX003 (ip), vehicle: Klucel (hydroxypropylcellulose) (HPC) 96 % of control

O=c1[nH]c(=O)n(CCc2cccs2)cc1F
inactive: [1] 106 % of control | [2] 101 % of control | [3] 94 % of control | [4] 108 % of control | [5] 108 % of control | [6] 90 % of control | [7] 92 % of control

O=C(c1ccncc1)c1c(Cc2ccccc2)ccc2ccccc12
inactive: [1] 92 % of control | [2] 96 % of control | [4] 90 % of control | [6] 92 % of control

CN1C(=O)Nc2ccc(Cl)cc2C1(O)c1ccccc1 (stereo not given)
inactive: [2] 89 % of control

CCOc1nc(=O)n(CC(=O)c2ccc(Cl)s2)cc1F
inactive: [1] 114 % of control | [2] 103 % of control | [3] 110 % of control | [4] 99 % of control | [5] 111 % of control | [6] 87 % of control | [7] 104 % of control

CN(C)N=Nc1ccc(CCCC(=O)NN)cc1
inactive: [8] 109 % of control | dose: 2.0 mg/kg/injection, schedule: Q01DX009 (ip), vehicle: saline with Tween-80 120 % of control | [9] 92 % of control | dose: 50.0 mg/kg/injection, schedule: Q04DX003 (ip), vehicle: saline sonified 100 % of control | [2] 100 % of control | [10] 115 % of control | [11] 110 % of control

C#CCOc1ccccc1/C(Cl)=N/Nc1ccc([N+](=O)[O-])cc1[N+](=O)[O-]
inactive: [8] 106 % of control | dose: 3.12 mg/kg/injection, schedule: Q01DX009 (ip), vehicle: saline with Tween-80 97 % of control | [12] 100 % of control

CC(=O)Nc1ccc(S(=O)(=O)N/N=C\c2ccc(Cl)c(Cl)c2)cc1
inactive: [12] 99 % of control | [13] 98 % of control | [9] 96 % of control

COC(=O)C(Br)C(OC)c1ccc(C)cc1 (stereo not given)
inactive: [2] 100 % of control | [4] 100 % of control | [6] 95 % of control

BrC1C2C=CCC1CC2 (stereo not given)
inactive: [14] 100 % of control | [15] 91 % of control | [16] 90 % of control | [17] 91 % of control | dose: 400.0 mg/kg/injection, schedule: Q01DX009 (ip), vehicle: saline 104 % of control | [18] 95 % of control

CN=C1N[N+]2=C(C)CSCC2(C)S1 (stereo not given)
inactive: dose: 50.0 mg/kg/injection, schedule: Q01DX009 (ip), vehicle: saline 100 % of control | [14] 100 % of control | [16] 97 % of control

C=CC1CC[N-]CC1.C=CC1CC[N-]CC1.C=CC1CC[N-]CC1.[Cl][Cr]([Cl])[Cl]
inactive: [13] 100 % of control | [9] 109 % of control | [1] 104 % of control

O=C(O)C1CCC(=O)N1C(=O)OCc1ccccc1 (stereo not given)
inactive: [2] 90 % of control | [4] 90 % of control | [6] 95 % of control

CCN(CC)CCOC(=O)CSC1C2CC3C(C2)C31 (stereo not given)
inactive: dose: 50.0 mg/kg/injection, schedule: Q01DX009 (ip), vehicle: suspension in saline 106 % of control | dose: 100.0 mg/kg/injection, schedule: Q01DX001 (ip), vehicle: suspension in saline 93 % of control | dose: 100.0 mg/kg/injection, schedule: Q01DX009 (ip), vehicle: suspension in saline 107 % of control | dose: 200.0 mg/kg/injection, schedule: Q01DX001 (ip), vehicle: suspension in saline 101 % of control | dose: 200.0 mg/kg/injection, schedule: Q01DX009 (ip), vehicle: suspension in saline 109 % of control | dose: 400.0 mg/kg/injection, schedule: Q01DX001 (ip), vehicle: suspension in saline 102 % of control | dose: 400.0 mg/kg/injection, schedule: Q01DX009 (ip), vehicle: suspension in saline 111 % of control | dose: 600.0 mg/kg/injection, schedule: Q01DX001 (ip), vehicle: suspension in saline 105 % of control

NC(=O)c1ncc[nH]c1=O
inactive: dose: 50.0 mg/kg/injection, schedule: Q04DX003 (ip), vehicle: saline with Tween-80 100 % of control | [3] 100 % of control | [5] 105 % of control

NC(=S)N=Nc1ccc(O)c2c(O)ccc(O)c12
inactive: dose: 6.3 mg/kg/injection, schedule: Q01DX009 (ip), vehicle: water 96 % of control | dose: 12.5 mg/kg/injection, schedule: Q01DX009 (ip), vehicle: water 94 % of control | dose: 25.0 mg/kg/injection, schedule: Q01DX009 (ip), vehicle: water 92 % of control | dose: 50.0 mg/kg/injection, schedule: Q01DX009 (ip), vehicle: water 86 % of control

O=[N+]([O-])c1cccc(CS(=O)(=O)c2ccccc2)c1-c1c(CS(=O)(=O)c2ccccc2)cccc1[N+](=O)[O-]
inactive: [10] 95 % of control | [11] 100 % of control | dose: 400.0 mg/kg/injection, schedule: Q04DX003 (ip), vehicle: saline sonified 86 % of control

COC(=O)C(=O)[C@@H](O)[C@H](O)[C@@H](O)CO
inactive: dose: 100.0 mg/kg/injection, schedule: Q01DX009 (ip), vehicle: Klucel (hydroxypropylcellulose) (HPC) 100 % of control | dose: 200.0 mg/kg/injection, schedule: Q01DX009 (ip), vehicle: Klucel (hydroxypropylcellulose) (HPC) 113 % of control | dose: 400.0 mg/kg/injection, schedule: Q01DX009 (ip), vehicle: Klucel (hydroxypropylcellulose) (HPC) 109 % of control

COc1cc2ccc(CN3CCCC3C(=O)OCc3ccccc3)cc2cc1OC (stereo not given)
inactive: [2] 100 % of control | [15] 109 % of control | [4] 104 % of control | [17] 118 % of control | [6] 116 % of control | [18] 100 % of control

OC1CCCC12CC2 (stereo not given)
inactive: [1] 100 % of control | [2] 102 % of control
